According to article PMC10400562, “Label-free measurement of antimicrobial peptide interactions with lipid vesicles and nanodiscs using microscale thermophoresis” (Scientific Reports, 2023):
Read-outs that look alike come from different tables or passages of the source. Non-standard residues stand in square brackets, D forms with d. Residues, ends and D or L forms follow the SMILES beside them.

How the values were obtained:
[1] = SPR, peptide binding to LUVs immobilized on L1 chip; settings: for Kd: SPR steady state analysis, HEPES pH 7.4, room temperature, mean ± SD of triplicates; for koff PC/PG / koff PC: SPR, 10 mM HEPES pH 7.4 100 mM NaCl, room temperature, 400 s dissociation phase; for koff PC/PG: two-population fit averaged; for koff PC: two-population fit averaged (Figueira et al.); for SPR KP, DMPC: lipid/aqueous partition coefficient from SPR steady state (Figueira et al. method), DMPC LUVs; for SPR KP, DMPC / SPR KP, DMPC/PG: HEPES pH 7.4, ± SD of triplicate fits; for SPR KP, DMPC/PG: lipid/aqueous partition coefficient from SPR steady state, 95% DMPC 5% DMPG LUVs
Experimental: The interactions between AMPs 1–5 and LUVs were first investigated by SPR as a benchmark for the MST measurements. The data was acquired using the same lipid compositions as used in the MST data acquisition. LUVs were immobilized on an L1 chip, and an increasing concentration of AMPs was injected over them. […] The dissociation rate, koff, was calculated from the dissociation step, using the methodology presented by Figueira et al.[21], summarized in Table 2.
DMPC and DMPC:5% DMPG vesicles were prepared by solubilising a known weight of lipid in chloroform with a small amount of methanol to assist in the dissolution of the PG lipid head groups. The chloroform stock was dried in vacuo to produce a lipid film, which was further dried for additional 3 h. The lipid film was solubilised in 10 mM TRIS buffer (pH 7.4) containing 100 mM NaCl to yield a 20 mM milky lipid stock.
To produce the working vesicle stock, 1 mL of vesicle stock was extruded 20 times through a 0.1 µm filter using an Avanti Lipids mini-extruder. Vesicle size was confirmed using a Malvern Zetasizer Nano ZS (Malvern Panalytical Ltd, Malvern, United Kingdom).
The SPR measurements were performed using a T200 Biacore instrument (GE Healthcare, Oslo, Norway) at room temperature. An L1 chip was covered with extruded DMPC liposomes (1 mM in 10 mM HEPES buffer pH 7.4 with 100 mM NaCl) using a flowrate of 2 µL/min for 2400 s. Chip coverage was tested by injection of 0.1 mg/mL of bovine serum albumin for 1 min at 30 µL/min, with a change of < 400 RU indicating sufficient coverage.
The liposome surface was stabilized after each injection by three subsequent injections of 10 mM NaOH at 30 µL/min for 30 s each. Between experiments, the chip surface was cleaned by 20 mM CHAPS, 40 mM octyl-β-D-glucopyranoside and 30% ethanol in turn, with each solution injected for 1 min at 30 µL/min. The control flow cell was treated identically, with the exception that only the HEPES buffer solution was injected. The results were processed using in-house MATLAB scripts (MATLAB R2020a; scripts are available at https://github.com/MarJakubec).
KD was obtained from a steady state analysis using the intensities at the 190 s dissociation time, using Eq. (1):[21]1 Req=cRmax/KD+c+Roff where Req is the response at the steady state equilibrium, c is the peptide concentration, Rmax is the maximum response and Roff the response offset.
KP was obtained from same steady state affinity values using the method presented by Figuera et al., Eq. (2):[21]2 RUS/RUL=γLKPMS/MLSW/1+σγLKPSW where RUS and RUL are the relative responses of solute (peptides) and lipids respectively, γL is the molar volume of the lipids, MS and ML are the molecular mass of solute and lipid, respectively, and [S]W is the concentration of solute in water. KP and σ are obtained from fitting (with σ being lipid to solute ratio).
For koff evaluation we have used the formalism of Figuera et al.[21] for linearization of the dissociation process, where we have identified the contribution from two different populations in the dissociation response. Koff values were then obtained by Eq. (3) and averaged by Eq. (4):3 SL(t)=αe^-koff,α^t+βe^-koff,β^t+SL,r 4 koff=αkoff,α+βkoff,β/α+β where SL is the linearized ratio of solute and lipid, α and β are individual populations, and SL,r is the retained solute fraction.

[2] = SPR; KP from the fits; settings: buffer
[3] = 95% DMPC 5% DMPG LUVs on L1 chip, read-out: SPR KD, DMPC/PG
[4] = 95% DMPC 5% DMPG LUVs on L1 chip

| SMILES | Kd [1, 3] | Kd ([1]; DMPC LUVs on L1 chip) | koff PC/PG [1, 4] | koff PC ([1]; DMPC LUVs on L1 chip) | SPR KP, DMPC [1] | SPR KP, DMPC/PG [1] | membrane partition coefficient KP (KP x 10^3) ([2]; DMPC bilayer on SPR chip) | membrane partition coefficient KP (KP x 10^3) ([2]; DMPC/PG bilayer on SPR chip) |
| --- | --- | --- | --- | --- | --- | --- | --- | --- |
| N=C(N)NCCC[C@@H]1NC(=O)[C@H](CCCNC(=N)N)NC(=O)[C@H](Cc2c[nH]c3ccccc23)NC(=O)[C@H](Cc2c[nH]c3ccccc23)NC(=O)[C@H](Cc2c[nH]c3ccccc23)NC(=O)[C@H](CCCNC(=N)N)NC1=O [compound 1] (cyclo(WWWRRR)) | 70 ± 1 µM | 142 ± 35 µM | 0.19 ± 0.01 s⁻¹ | 0.22 ± 0.02 s⁻¹ | 6.65 ± 0.80 × 10^3 | 12.71 ± 0.16 × 10^3 | 6.65 ± 0.80 x10^3 | 12.71 ± 0.16 x10^3 |
| N=C(N)NCCC[C@@H]1NC(=O)[C@H](Cc2c[nH]c3ccccc23)NC(=O)[C@H](CCCNC(=N)N)NC(=O)[C@H](Cc2c[nH]c3ccccc23)NC(=O)[C@H](CCCNC(=N)N)NC(=O)[C@H](Cc2c[nH]c3ccccc23)NC1=O [compound 2] (cyclo(WRWRWR)) | 105 ± 7 µM | 318 ± 62 µM | 0.48 ± 0.05 s⁻¹ | 0.87 ± 0.19 s⁻¹ | 1.30 ± 0.09 × 10^3 | 3.16 ± 0.15 × 10^3 | 1.30 ± 0.09 x10^3 | 3.16 ± 0.15 x10^3 |

Other lines, results leading:

| Kd [1, 3] | Kd ([1]; DMPC LUVs on L1 chip) | koff PC/PG [1, 4] | koff PC ([1]; DMPC LUVs on L1 chip) | SPR KP, DMPC [1] | SPR KP, DMPC/PG [1] | membrane partition coefficient KP (KP x 10^3) ([2]; DMPC bilayer on SPR chip) | membrane partition coefficient KP (KP x 10^3) ([2]; DMPC/PG bilayer on SPR chip) | SMILES |
| --- | --- | --- | --- | --- | --- | --- | --- | --- |
| 112 ± 15 µM | 302 ± 32 µM | 0.32 ± 0.05 s⁻¹ | 0.48 ± 0.07 s⁻¹ | 2.53 ± 0.08 × 10^3 | 5.16 ± 0.34 × 10^3 | 2.53 ± 0.08 x10^3 | 5.16 ± 0.34 x10^3 | NCCCC[C@@H]1NC(=O)[C@H](CCCCN)NC(=O)[C@H](Cc2c[nH]c3ccccc23)NC(=O)[C@H](Cc2c[nH]c3ccccc23)NC(=O)[C@H](Cc2c[nH]c3ccccc23)NC(=O)[C@H](CCCCN)NC1=O [compound 3] (cyclo(WWWKKK)) |
| 474 ± 45 µM | 712 ± 27 µM | 1.32 ± 0.05 s⁻¹ | 0.90 ± 0.24 s⁻¹ | 0.53 ± 0.01 × 10^3 | 0.63 ± 0.03 × 10^3 | 0.53 ± 0.01 x10^3 | 0.63 ± 0.03 x10^3 | NCCCC[C@@H]1NC(=O)[C@H](Cc2c[nH]c3ccccc23)NC(=O)[C@H](CCCCN)NC(=O)[C@H](Cc2c[nH]c3ccccc23)NC(=O)[C@H](CCCCN)NC(=O)[C@H](Cc2c[nH]c3ccccc23)NC1=O [compound 4] (cyclo(WKWKWK)) |
| 1030 ± 58 µM | 2550 ± 493 µM | 1.75 ± 0.16 s⁻¹ | 1.76 ± 0.12 s⁻¹ | 0.28 ± 0.01 × 10^3 | 0.40 ± 0.02 × 10^3 | 0.28 ± 0.01 x10^3 | – | CC(C)C[C@@H]1NC(=O)[C@@H](CCCNC(=N)N)NC(=O)[C@H](CCCCN)NC(=O)[C@H](CC(N)=O)NC(=O)[C@@H](Cc2c[nH]c3ccccc23)NC(=O)[C@H](Cc2c[nH]c3ccccc23)NC1=O [compound 5] (cyclo(LW[dW]NK[dR])) |
